According to patent US9951055B2, “Thiazole-based inhibitors of scavenger receptor BI” (THE BROAD INSTITUTE, INC., priority 2012, dated 2018):

Columns and labels:
murine SR-BI = target: T1, murine SR-BI (Mus musculus, UniProt Q61009); test: Compound reversibility, cellular uptake of DiI from DiI-HDL; type: cell-based; conditions: 1 hr preincubation, then 0 or 4 hr incubation in the absence of compound; read-out: IC50, reversibility test (DiI uptake)
T1 construct: expressed in transfected cells; host or cells: ldlA[mSR-BI]; (CHO ldlA7 derivative lacking the LDL receptor)
T1 sequence (Q61009 1-509): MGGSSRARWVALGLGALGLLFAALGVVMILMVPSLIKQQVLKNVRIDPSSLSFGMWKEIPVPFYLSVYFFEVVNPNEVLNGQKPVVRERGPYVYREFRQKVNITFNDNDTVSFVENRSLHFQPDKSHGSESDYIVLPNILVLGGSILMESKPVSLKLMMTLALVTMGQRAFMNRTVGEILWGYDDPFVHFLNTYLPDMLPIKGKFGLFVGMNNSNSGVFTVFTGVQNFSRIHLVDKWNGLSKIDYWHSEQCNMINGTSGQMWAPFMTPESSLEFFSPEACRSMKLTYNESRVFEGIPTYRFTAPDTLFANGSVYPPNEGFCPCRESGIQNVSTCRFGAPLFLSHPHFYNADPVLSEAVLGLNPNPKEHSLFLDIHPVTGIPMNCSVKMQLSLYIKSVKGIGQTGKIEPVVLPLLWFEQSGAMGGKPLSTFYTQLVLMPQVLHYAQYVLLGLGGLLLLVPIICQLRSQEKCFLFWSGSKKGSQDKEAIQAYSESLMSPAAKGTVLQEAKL
Protocol: Compound reversibility was tested by measuring the cellular uptake of DiI from DiI-HDL (all incubations at 37° C.) in ldlA7 cells that were stably transfected with cDNA encoding murine SR-BI. On day 0, 50,000 cells were plated in 96-well dishes per well (Costar, black with clear, flat bottom) in Ham's F12 medium containing 2 mM L-glutamine, 50 units/mL penicillin per 50 μg/mL streptomycin (medium A) supplemented with 5% (vol/vol) FBS and 0.25 mg/mL G418 (medium B). On day 2, the cells were washed twice with prewarmed (37° C.) medium A. The cells were then preincubated with the tested compounds in 200 μL per well of medium A plus 0.5% (wt/vol) BSA plus 0.5% (vol/vol) DMSO (medium C) for 1 hr. The 1 hr preincubation was followed by either a 0 or 4 hr incubation in medium C in the absence of compound. The cells were then incubated in medium C (200 μL per well) containing 10 μg protein per mL of DiI-HDL at 37° C. for 2 h to measure DiI uptake. […] Then 50 μL PBS was added and fluorescence measurements made using a Molecular Devices SpectraMax fluorescence plate reader (excitation at 515 nm, emission at 575 nm, bottom read mode). DiI uptake was also measured in the presence of a 40-fold excess of unlabeled HDL to determine nonspecific (SR-BI-independent) uptake.

[1] = test system: endocytosis of transferrin; test: Transferrin endocytosis assay; type: cell-based
Description: Transferrin Endocytosis Assay (SA 3: AID No. 602134) This assay measures the endocytosis of an independent ligand, transferrin, which is not taken up via SR-BI but by clathrin-mediated endocytosis. This assay provides a measure of the selectivity of the inhibitors. Alexa-594-labeled transferrin is taken into the cell via endocytosis and localization of labeled transferrin was quantitated in the various intracellular compartments. […] Inhibitors of interest should act selectively at SR-BI and should have no activity in this assay. Cells were pre-treated with compound for 3 hours and then treated with the Alexa-594 transferrin reagent for 30 minutes (Catalog No. T-13343; Invitrogen) in serum-free media. Plates of cells were then placed onto ice, washed with ice cold PBS, and then fixed with 4% paraformaldehyde. In addition, the nuclei were stained with 300 nM 4′,6-diamidino-2-phenylindole (DAPI) (Catalog No. 21490; Invitrogen). The cells were imaged with the Molecular Devices IXM microscope (FIG. 22). Translocation measurements were performed using MetaExpress software and normalized for cell number.

SR-BI = target: T2, SR-BI (Mus musculus, UniProt Q61009); test: Radioactive HDL uptake assay (wild type SR-BI); type: cell-based, murine; design: expressed in transfected cells; host or cells: ldlA[mSR-BI]; (CHO ldlA7 derivative lacking the LDL receptor); conditions: [3H]cholesteryl ester HDL; read-out: average IC50, radiolabeled version of the uptake assay
T2 sequence (Q61009 1-509): T1 sequence (Q61009 1-509)
Description: Radioactive HDL Uptake Assay (wild type SR-BI) (SA 8: AID No. 588836)
The goal of this assay is to verify compounds that disrupt the lipid uptake from HDL particles to SR-BI scavenger receptor-expressing cells using an alternative means of labeling HDL particles and avoiding any type of fluorescence measurement. To measure this binding event, HDL particles are labeled with [^3H]cholesteryl ester and added to mSR-BI expressing cells. Cells take up the radioactive lipids from HDL via SR-BI in 2 to 3 hours. After significant uptake of the lipids from HDL, the radiolabel can be detected by liquid scintillation counting. The level of radioactivity correlates with the amount of HDL lipid uptake. The uptake of lipid from the HDL particles particles can be inhibited by the compound BLT-1 or when co-treated with an excess of unlabeled HDL. The ldlA[mSR-BI]-expressing cells utilized in the assay are from a Chinese Hamster Ovary (CHO) cell line lacking expression of the LDL receptors and overexpressing the scavenger receptor, SR-BI. Inhibitors of SR-BI and HDL lipid uptake will have a reduction in liquid scintillation counts.

**Q.** Which IC50 (murine SR-BI) does the source give for COCC(=O)N1CCc2cc(-c3csc(NC(=O)c4cc(OC)cc(OC)c4)n3)ccc21 [Compound 137, 3,5-Dimethoxy-N-(4-(1-(2-methoxyacetyl)indolin-5-yl)thiazol-2-yl)benzamide] here?
**A.** 315 nM

**Q.** What about the “effect on the endocytosis of transferrin” value ([1]; at concentrations up to 35 μM) of the same compound?
**A.** no effect on the endocytosis of transferrin

**Q.** And the “endocytosis of transferrin” value ([1]; listed as ML278)?
**A.** not grossly perturbing cellular membrane trafficking pathways

**Q.** And the “endocytosis of transferrin” value ([1]; listed as Probe 278)?
**A.** did not inhibit endocytosis of transferring

**Q.** And the “endocytosis of transferrin” value ([1]; listed as compound of Formula (II))?
**A.** does not inhibit endocytosis of transferrin

**Q.** And the IC50 (SR-BI)?
**A.** 1000 nM
